Data on 1 substance can be found in EP0998480B1, “NUCLEOTIDE ANALOG COMPOSITION AND SYNTHESIS METHOD” (GILEAD SCIENCES, INC., priority 1997, dated 1999).

A short description of data set [1]: hygroscopicity at 92% relative humidity. It counts as physicochemical. The conditions noted are these: crystals kept at 92% relative humidity and room temperature for up to 37 days.
Data set [2] is described as follows: solid state chemical stability on storage at elevated temperature and relative humidity. It counts as physicochemical. As to conditions: for BPPF% / mono(POC) PMPA fumarate%: 75% relative humidity, 0 days; for mono(POC) PMPA fumarate%: degradation product in stored BPPF. The source says:
The solid state chemical stability of cBPPF and bis(POC)PMPA•citrate salt was compared by analyzing each compound after storage under different conditions.

For data set [3] the following is noted: human, in vivo.

With “9-[2-(R)-[[Bis[[(isopropoxycarbonyl)oxy]methoxy]phosphinoyl]methoxy]propyl]adenine• fumaric acid [BPPF]”, the hygroscopicity result in data set [1] is “not hygroscopic”. Also, in data set [2] (40°C), the BPPF% is 99.0% and the “mono(POC) PMPA fumarate%” value was found to be 1.0%. Moreover, in data set [2] (60°C), the BPPF% is 99.0% and the “mono(POC) PMPA fumarate%” value was determined as 1.0%. The “solid state chemical stability compared with bis(POC)PMPA citrate salt” value in data set [2] (powder, storage at elevated temperature and relative humidity) is recorded as “more stable”. The oral bioavailability in data set [3] is listed as 30-40%.
